# Laboratory results reported in ChEMBL document CHEMBL1201862, “PubChem BioAssay data set” (2004).
# Calls of active or inactive are those of the source.
# Key:
# [1] = target: T1, Sphingosine 1-phosphate receptor 4 (Homo sapiens, UniProt O95977); assay: Fluorescence dose response cell-based high throughput screening assay for antagonists of the Sphingosine 1-Phosphate Receptor 4 (S1P4). [Related pubchem assays: 1524 (Confirmation in triplicates.), 1510 (Primary screen.)]; type: functional
# T1 sequence (O95977 whole entry): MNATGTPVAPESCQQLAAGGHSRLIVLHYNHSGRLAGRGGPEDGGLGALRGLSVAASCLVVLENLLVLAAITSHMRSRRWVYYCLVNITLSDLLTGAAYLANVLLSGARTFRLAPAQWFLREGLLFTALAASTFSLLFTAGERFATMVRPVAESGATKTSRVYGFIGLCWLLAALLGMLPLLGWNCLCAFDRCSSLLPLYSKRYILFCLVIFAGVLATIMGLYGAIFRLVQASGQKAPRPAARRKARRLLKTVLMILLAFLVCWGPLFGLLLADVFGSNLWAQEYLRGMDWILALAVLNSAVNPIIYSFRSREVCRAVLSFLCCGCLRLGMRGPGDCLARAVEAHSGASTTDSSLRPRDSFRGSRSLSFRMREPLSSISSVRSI
# [2] = target: T1, Sphingosine 1-phosphate receptor 4; assay: Late stage fluorescence dose response cell-based screening assay for antagonists of the Sphingosine 1-Phosphate Receptor 4 (S1P4). [Related pubchem assays: 1524 (Confirmation screen (S1P4 antagonists).), 1510 (Primary screen (S1P4 antagonists).), 1853 (Summary AID (S1P4 antagonists).), 1692 (Dose response screen (S1P4 antagonists).)]; type: functional
# [3] = target: T2, Replicative DNA helicase DnaB (Mycobacterium tuberculosis, UniProt P9WMR3); assay: DnaB intein splicing inhibitors, dose response, biochemical, cell-free fluorescence (AID 449749); type: functional
# T2 sequence (P9WMR3 whole entry): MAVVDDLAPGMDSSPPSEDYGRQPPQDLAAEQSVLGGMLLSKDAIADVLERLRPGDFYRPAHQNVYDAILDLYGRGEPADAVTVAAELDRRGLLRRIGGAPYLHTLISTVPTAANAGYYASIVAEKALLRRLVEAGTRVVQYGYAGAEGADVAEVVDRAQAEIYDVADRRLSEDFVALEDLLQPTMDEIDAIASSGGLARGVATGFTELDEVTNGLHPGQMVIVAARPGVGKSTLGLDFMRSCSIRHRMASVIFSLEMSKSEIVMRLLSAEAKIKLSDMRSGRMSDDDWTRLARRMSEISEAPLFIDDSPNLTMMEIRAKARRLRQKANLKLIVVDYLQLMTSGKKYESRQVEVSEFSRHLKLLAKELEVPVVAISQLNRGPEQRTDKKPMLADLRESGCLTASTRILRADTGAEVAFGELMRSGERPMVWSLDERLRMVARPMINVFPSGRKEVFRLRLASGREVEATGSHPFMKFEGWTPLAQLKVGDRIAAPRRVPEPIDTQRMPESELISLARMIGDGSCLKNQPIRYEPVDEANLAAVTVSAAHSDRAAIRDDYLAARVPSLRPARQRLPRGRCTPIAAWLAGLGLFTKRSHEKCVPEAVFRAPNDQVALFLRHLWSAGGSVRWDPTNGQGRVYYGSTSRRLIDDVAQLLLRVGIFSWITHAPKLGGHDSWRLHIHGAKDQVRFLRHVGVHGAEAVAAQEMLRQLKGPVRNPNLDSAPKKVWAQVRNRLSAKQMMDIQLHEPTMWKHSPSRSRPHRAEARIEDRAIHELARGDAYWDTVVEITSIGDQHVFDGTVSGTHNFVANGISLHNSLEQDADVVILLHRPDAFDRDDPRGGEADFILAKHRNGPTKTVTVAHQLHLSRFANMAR
# [4] = target: Sphingosine 1-phosphate receptor 2 (Homo sapiens, UniProt O95136); assay: Dose Response Cell Based Assay for Antagonists of the S1P2 Receptor. [Related pubchem assays: 856, 736 ]; type: functional
# [5] = inhibitors of PGC1a acetylation in cells, dose response, cell-based, cherry-picked samples (AID 720514); type: functional;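 also: potency may reflect raised or lowered acetylation signal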
# [6] = target: Photoreceptor-specific nuclear receptor (Homo sapiens, UniProt Q9Y5X4); type: functional, cell-based;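 also: CHO-S cells with Gal4-NCOR and VP16-NR2E3 two-hybrid luciferase reporter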
# Protein RecA = target: T3, Protein RecA (Mycobacterium tuberculosis, UniProt P9WHJ3); assay: Fluorescence Cell-Free Homogeneous Dose Retest to Identify Inhibitors of RecA-Intein Splicing Activity. [Related pubchem assays (depositor defined):AID2097, AID2223, AID489010, AID492950]; type: functional
# T3 sequence (P9WHJ3 whole entry): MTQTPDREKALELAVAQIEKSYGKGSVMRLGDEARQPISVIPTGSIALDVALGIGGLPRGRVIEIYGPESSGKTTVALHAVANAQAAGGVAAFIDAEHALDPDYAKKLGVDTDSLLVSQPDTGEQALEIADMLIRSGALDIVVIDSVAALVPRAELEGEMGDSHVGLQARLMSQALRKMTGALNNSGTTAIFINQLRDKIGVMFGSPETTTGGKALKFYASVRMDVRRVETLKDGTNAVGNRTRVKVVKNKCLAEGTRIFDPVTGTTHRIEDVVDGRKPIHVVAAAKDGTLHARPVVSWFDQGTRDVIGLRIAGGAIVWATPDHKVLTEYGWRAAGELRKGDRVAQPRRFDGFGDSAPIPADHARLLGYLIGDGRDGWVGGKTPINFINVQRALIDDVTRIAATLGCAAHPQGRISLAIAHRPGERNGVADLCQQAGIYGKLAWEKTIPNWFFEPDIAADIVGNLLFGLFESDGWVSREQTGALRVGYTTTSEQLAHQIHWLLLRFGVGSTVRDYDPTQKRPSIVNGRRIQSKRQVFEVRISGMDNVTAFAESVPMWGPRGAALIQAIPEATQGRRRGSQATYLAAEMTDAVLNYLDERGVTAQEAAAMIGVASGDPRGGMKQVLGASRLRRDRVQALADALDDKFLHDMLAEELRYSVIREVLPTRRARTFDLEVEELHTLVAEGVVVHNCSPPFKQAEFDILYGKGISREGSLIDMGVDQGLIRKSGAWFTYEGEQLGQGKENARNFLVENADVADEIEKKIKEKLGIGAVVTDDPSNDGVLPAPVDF
# [7] = target: Sphingosine 1-phosphate receptor 1 (Homo sapiens, UniProt P21453); type: functional;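 also: Tango beta-arrestin reporter U2OS cells stimulated with S1P near its EC80; inhibitor potency meaning antagonism of receptor activation by the natural agonist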
# Bcl-2-like protein 10 = target: T4, Bcl-2-like protein 10 (Homo sapiens, UniProt Q9HD36); assay: Biochemical TR3 FP assay of Bcl-B inhibitor potency, EC50 (AID 1243); type: functional
# T4 sequence (Q9HD36 whole entry): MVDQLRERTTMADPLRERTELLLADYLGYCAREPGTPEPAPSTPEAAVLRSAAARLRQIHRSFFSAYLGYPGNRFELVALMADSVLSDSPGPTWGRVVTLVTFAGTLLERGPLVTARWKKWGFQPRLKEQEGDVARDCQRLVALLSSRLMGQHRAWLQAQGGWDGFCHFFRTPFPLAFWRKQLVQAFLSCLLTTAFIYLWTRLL
# [8] = target: T5, Corticotropin-releasing factor receptor 2/Corticotropin-releasing factor-binding protein (Homo sapiens, UniProt P24387+Q13324); assay: activators of CRF receptor 2 with binding protein – uHTS hits, confirmation (AID 602473); type: functional; settings: read-out: EC50_Mean
# T5 sequence (Q13324 whole entry): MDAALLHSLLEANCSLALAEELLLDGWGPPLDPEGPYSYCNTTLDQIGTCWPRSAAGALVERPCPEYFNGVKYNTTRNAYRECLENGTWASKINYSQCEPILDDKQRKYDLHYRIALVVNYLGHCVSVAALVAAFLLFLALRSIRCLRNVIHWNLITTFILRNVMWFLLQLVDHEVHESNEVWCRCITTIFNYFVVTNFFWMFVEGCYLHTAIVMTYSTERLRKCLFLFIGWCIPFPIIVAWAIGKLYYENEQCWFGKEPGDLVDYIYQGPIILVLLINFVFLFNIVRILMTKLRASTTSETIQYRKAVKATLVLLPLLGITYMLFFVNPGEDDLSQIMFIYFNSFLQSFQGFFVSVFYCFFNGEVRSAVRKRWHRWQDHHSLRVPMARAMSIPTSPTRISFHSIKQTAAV
# T5 sequence (P24387 whole entry): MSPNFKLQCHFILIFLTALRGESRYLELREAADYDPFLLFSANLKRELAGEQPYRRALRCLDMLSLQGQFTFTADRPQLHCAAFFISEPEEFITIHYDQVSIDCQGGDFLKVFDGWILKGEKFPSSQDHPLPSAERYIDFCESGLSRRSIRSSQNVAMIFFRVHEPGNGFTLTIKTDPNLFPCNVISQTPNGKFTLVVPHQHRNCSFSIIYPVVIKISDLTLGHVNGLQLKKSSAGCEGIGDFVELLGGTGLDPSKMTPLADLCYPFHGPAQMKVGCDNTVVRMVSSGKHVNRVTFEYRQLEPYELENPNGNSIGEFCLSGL
# [9] = target: Induced myeloid leukemia cell differentiation protein Mcl-1 (Homo sapiens, UniProt Q07820); type: functional
# [10] = inhibitors of Bluetongue virus cytopathic effect, confirmation, arbovirus, BSR cells (AID 1250); type: functional;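 also: protection from viral cytopathic effect measured as cell viability by ATP luminescence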
# [11] = target: T5, Corticotropin-releasing factor receptor 2/Corticotropin-releasing factor-binding protein; assay: Dose Response confirmation of uHTS hits for small molecule antagonists of the CRF-binding protein and CRF-R2 receptor complex.; type: functional; settings: read-out: IC50_Mean
# [12] = target: T6, Sentrin-specific protease 1 (Homo sapiens, UniProt Q9P0U3); assay: Dose response confirmation of small molecule inhibitors of the catalytic domain of the SUMO protease, SENP1 in a FRET assay.; type: functional; settings: read-out: IC50_Mean
# T6 sequence (Q9P0U3 whole entry): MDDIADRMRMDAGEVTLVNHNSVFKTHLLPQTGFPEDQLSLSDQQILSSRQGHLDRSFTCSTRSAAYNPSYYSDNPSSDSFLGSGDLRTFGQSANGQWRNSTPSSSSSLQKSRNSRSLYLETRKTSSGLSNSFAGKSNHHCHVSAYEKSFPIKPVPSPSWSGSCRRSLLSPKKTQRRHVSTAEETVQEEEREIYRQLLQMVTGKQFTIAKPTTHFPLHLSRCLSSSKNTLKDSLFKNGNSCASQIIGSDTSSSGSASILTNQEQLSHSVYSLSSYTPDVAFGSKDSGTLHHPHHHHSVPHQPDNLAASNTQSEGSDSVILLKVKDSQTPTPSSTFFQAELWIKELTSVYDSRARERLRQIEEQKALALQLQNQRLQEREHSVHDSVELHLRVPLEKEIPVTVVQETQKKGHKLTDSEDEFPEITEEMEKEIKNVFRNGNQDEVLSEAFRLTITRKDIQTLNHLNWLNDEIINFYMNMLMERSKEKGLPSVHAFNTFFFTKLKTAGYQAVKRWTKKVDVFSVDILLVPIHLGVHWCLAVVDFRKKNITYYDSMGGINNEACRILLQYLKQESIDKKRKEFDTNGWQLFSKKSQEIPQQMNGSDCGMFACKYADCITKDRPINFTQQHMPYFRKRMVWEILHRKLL
# [13] = target: T6, Sentrin-specific protease 1; assay: potency of human SENP1 inhibitors, dose response, biochemical, kinetic FRET (AID 651697); type: functional; settings: read-out: IC50_Mean
# Sphingosine 1-phosphate receptor 2, sequence (O95136 whole entry): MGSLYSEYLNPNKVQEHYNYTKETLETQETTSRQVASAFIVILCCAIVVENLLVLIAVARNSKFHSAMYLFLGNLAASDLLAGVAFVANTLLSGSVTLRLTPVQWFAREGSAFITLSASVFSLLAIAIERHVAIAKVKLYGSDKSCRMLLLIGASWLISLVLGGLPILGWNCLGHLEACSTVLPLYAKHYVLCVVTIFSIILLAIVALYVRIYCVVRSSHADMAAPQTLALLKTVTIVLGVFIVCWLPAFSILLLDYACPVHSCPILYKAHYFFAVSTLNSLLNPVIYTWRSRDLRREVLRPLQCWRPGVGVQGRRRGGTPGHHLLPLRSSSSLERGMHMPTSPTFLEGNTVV
# Induced myeloid leukemia cell differentiation protein Mcl-1, sequence (Q07820 whole entry): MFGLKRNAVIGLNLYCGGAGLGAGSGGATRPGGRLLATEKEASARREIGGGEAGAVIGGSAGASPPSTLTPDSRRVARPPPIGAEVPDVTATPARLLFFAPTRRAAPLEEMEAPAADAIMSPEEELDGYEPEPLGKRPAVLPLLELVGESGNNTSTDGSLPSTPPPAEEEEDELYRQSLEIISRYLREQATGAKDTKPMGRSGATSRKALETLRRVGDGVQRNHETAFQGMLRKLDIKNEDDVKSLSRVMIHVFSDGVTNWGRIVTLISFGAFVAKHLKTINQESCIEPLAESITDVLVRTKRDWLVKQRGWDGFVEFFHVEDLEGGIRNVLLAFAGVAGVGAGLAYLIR
# Sphingosine 1-phosphate receptor 1, sequence (P21453 whole entry): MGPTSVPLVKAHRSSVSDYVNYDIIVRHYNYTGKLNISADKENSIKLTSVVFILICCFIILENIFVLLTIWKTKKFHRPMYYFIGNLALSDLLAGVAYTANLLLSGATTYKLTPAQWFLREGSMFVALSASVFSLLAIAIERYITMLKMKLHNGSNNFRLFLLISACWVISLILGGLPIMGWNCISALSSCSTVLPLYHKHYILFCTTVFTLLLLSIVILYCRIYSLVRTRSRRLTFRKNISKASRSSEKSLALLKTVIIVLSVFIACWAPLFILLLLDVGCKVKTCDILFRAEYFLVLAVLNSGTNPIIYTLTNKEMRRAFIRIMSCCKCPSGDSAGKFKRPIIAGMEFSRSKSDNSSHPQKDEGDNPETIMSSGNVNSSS
# Photoreceptor-specific nuclear receptor, sequence (Q9Y5X4 whole entry, the tested form may be a part): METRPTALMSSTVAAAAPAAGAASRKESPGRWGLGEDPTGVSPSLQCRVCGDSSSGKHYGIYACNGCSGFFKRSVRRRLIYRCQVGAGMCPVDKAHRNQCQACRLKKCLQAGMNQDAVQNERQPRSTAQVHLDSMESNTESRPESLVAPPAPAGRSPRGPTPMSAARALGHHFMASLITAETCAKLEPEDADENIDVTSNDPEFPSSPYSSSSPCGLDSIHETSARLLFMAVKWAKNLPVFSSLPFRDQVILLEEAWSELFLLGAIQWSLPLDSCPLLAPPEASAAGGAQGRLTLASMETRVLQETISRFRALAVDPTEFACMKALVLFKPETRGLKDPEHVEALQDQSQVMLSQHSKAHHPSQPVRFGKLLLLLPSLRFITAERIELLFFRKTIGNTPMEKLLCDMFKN
compound,measurement,setting,value
COc1ccc(NC(=O)/C(Cl)=C(/Cl)S(=O)(=O)Cc2ccccc2)cn1,IC50,[1],0.829 µM (active)
same,IC50,[2],5.28 µM (not active)
same,AC50,[3],2.44 µM (active)
same,IC50,[4],1.76 µM (active)
same,AC50,[5],5.17 µM (active)
same,IC50,[6],1.15 µM (active)
same,EC50,Protein RecA,2.79 µM (active)
same,IC50,[7],8.15 µM (active)
COC(=O)C1=C(C)N(C)C(=O)NC1c1cc2c(cc1[N+](=O)[O-])OCO2 (stereo not given),EC50,Bcl-2-like protein 10,17.4 µM (active)
COc1ccccc1C1C2=C(N=c3s/c(=C/c4cccc(OCC(=O)O)c4)c(=O)n31)c1ccccc1CC2 (stereo not given),EC50,[8],> 53 µM (inactive)
same,IC50,[9],2.51 µM (active)
same,IC50,[10],21.3 µM (active)
same,IC50,[11],> 47.1 µM (inactive)
same,IC50,[12],25.4 µM (inactive)
same,IC50,[13],18.9 µM (active)
